According to PMC9257893 (The Onderstepoort Journal of Veterinary Research, 2022):
Values joined by “and” are separate entries in the source; they are usually repeats but may differ in a detail not shown here. Equal entries are not always repeated. Where two headings read alike, the source gives them in different places.

Legend:
[1] = pigeon; cited from earlier work
[2] = Gyps vultures; cited from earlier work
[3] = set-up: method as in Naidoo et al. [2007]; settings: African White-backed Vulture; ref Naidoo et al. [2007]; cited from earlier work
[4] = Diclofenac plasma pharmacokinetics in chickens after IV dosing (HPLC, non-compartmental); settings: for AUC(0-inf): AUCinf; for AUC(0-t): AUClast
Protocol: Birds still alive after 15 days were terminated by sedation and carbon dioxide asphyxiation.
Scheduled and unscheduled deaths were submitted to the University of Pretoria Paraclinical Department, section of veterinary pathology, for full gross and histological evaluation. Where needed, samples were collected in 10% buffered formalin, sectioned and stained via haematoxylin & eosin (H&E) technique and subjected to histopathologic examination.
Samples were analysed at the University of Pretoria, Veterinary, Paraclinical Department, toxicology and pharmacology laboratory. […] In short, 200 μL of plasma was placed in a 2-mL tube, followed sequentially by 400 μL of diethyl ether and 400 μL of potassium dihydrogen phosphate (0.3 M and pH 3.5). […] The separated organic phase was dried under nitrogen flow at 50 °C until dry.
For analysis, 30 μL was injected at […], and detection at 275 nm.
Concentration-time data generated following HPLC analysis was dose equalised to 1 mg/kg and evaluated by non-compartmental modelling (Kinetica 5.1, Thermo Scientific). The pharmacokinetic parameters maximum plasma concentration (Cmax) and time to maximum plasma concentration (Tmax) were read off the curve.
Area under the plasma curve extrapolated to infinity was calculated as: • AUCinf=AUClast+AUCextra, [Eqn 3] where AUCextra=Clast/β,Clast
is the last measured concentration and β is the terminal elimination portion of the curve gradient, on a natural logarithmic scale.
The half-life of elimination (T1/2) was calculated as: • T1/2=Ln 2/β. [Eqn 4]
Whole plasma clearance (Cl) was calculated as: • Cl=Dose/AUClast. [Eqn 5]
Volume of distribution (Vd) was calculated as: • Vd=Dose/CP0, [Eqn 6] where CP0 was the calculated concentration at time 0.
The mean residence time (MRT) was calculated as: • MRT=Dose Cp0/β. [Eqn 7]

[5] = set-up: method as in Naidoo et al. [2007]; settings: Cape Griffon Vulture; ref Naidoo et al. [2007]; cited from earlier work
[6] = in vivo, iv, 1 mg/kg, control group (diclofenac IV alone), birds alive, GM, dose corrected to 1 mg/kg
[7] = in vivo, iv, 1 mg/kg, control group (diclofenac IV alone), birds dead, GM, dose corrected to 1 mg/kg
[8] = in vivo, iv, test group (fluconazole + diclofenac IV), birds alive, GM, dose corrected to 1 mg/kg
[9] = test group (fluconazole + diclofenac IV), birds alive, GM, dose corrected to 1 mg/kg
[10] = test group (fluconazole + diclofenac IV), birds dead, GM, dose corrected to 1 mg/kg

O=C(O)Cc1ccccc1Nc1c(Cl)cccc1Cl [diclofenac, diclofenac sodium]
T1/2 [1]: < 7 h
T1/2 [2]: > 7 h
MRT [3]: 26.10 h
T1/2 [3]: 16.78 h
Cmax ([4]; chicken (Gallus gallus domesticus), in vivo, iv, mean Cmax, mean value stated in text, chickens, IV diclofenac): 0.51 µg/mL
Tmax ([4]; chicken (Gallus gallus domesticus), in vivo, iv, mean Tmax, mean value stated in text, chickens, IV diclofenac): 0.38 h
Lz (terminal elimination phase rate constant) ([4]; control group (diclofenac IV alone), birds alive, GM): 0.88 h⁻¹
AUMClast ([4]; control group (diclofenac IV alone), birds alive, GM, dose corrected to 1 mg/kg): 0.35 μg/mL*(h)^2
Lz (terminal elimination phase rate constant) ([4]; control group (diclofenac IV alone), birds dead, GM): 0.34 h⁻¹
AUMClast ([4]; control group (diclofenac IV alone), birds dead, GM, dose corrected to 1 mg/kg): 0.27 μg/mL*(h)^2
T1/2 of individual birds ([4]; control group birds receiving the two highest doses): 7.01 h and 2.75 h
AUC(0-inf) [4, 6]: 0.57 µg·h/mL
AUC(0-inf) [4, 7]: 0.76 µg·h/mL
AUC(0-t) [4, 6]: 0.46 µg·h/mL
AUC(0-t) [4, 7]: 0.31 µg·h/mL
Cmax ([4]; in vivo, iv, 1 mg/kg, Cmax, control group (diclofenac IV alone), birds alive, GM, dose corrected to 1 mg/kg): 0.52 µg/mL
Cmax ([4]; in vivo, iv, 1 mg/kg, Cmax, control group (diclofenac IV alone), birds dead, GM, dose corrected to 1 mg/kg): 0.24 µg/mL
AUC(0-inf) [4, 8]: 0.55 µg·h/mL
AUC(0-inf) ([4]; in vivo, iv, test group (fluconazole + diclofenac IV), birds dead, GM, dose corrected to 1 mg/kg): 1.13 µg·h/mL
AUC(0-t) ([4]; in vivo, iv, geometric mean, control group, all birds): 0.4 µg·h/mL
AUC(0-t) ([4]; in vivo, iv, geometric mean, test group (CYP inhibitor), all birds): 0.5 µg·h/mL
AUC(0-t) [4, 8]: 0.42 µg·h/mL
clearance ([4]; in vivo, iv, Cl, control group (diclofenac IV alone), birds alive, GM): 1.74 L/h/kg
clearance ([4]; in vivo, iv, Cl, control group (diclofenac IV alone), birds dead, GM): 1.32 L/h/kg
clearance ([4]; in vivo, iv, Cl, test group (fluconazole + diclofenac IV), birds alive, GM): 1.83 L/h/kg
clearance ([4]; in vivo, iv, Cl, test group (fluconazole + diclofenac IV), birds dead, GM): 0.88 L/h/kg
Cmax ([4]; in vivo, iv, Cmax, geometric mean, control group, all birds): 0.41 µg/mL
Cmax ([4]; in vivo, iv, Cmax, geometric mean, test group (CYP inhibitor), all birds): 0.61 µg/mL
Cmax ([4]; in vivo, iv, Cmax, test group (fluconazole + diclofenac IV), birds dead, GM, dose corrected to 1 mg/kg): 1.24 µg/mL
MRT ([4]; in vivo, iv, control group (diclofenac IV alone), birds alive, GM): 1.17 h
MRT ([4]; in vivo, iv, control group (diclofenac IV alone), birds dead, GM): 3.14 h
MRT ([4]; in vivo, iv, test group (fluconazole + diclofenac IV), birds alive, GM): 1.34 h
MRT ([4]; in vivo, iv, test group (fluconazole + diclofenac IV), birds dead, GM): 1.33 h
half-life ([4]; in vivo, iv, T1/2, control group (diclofenac IV alone), birds alive, GM): 0.79 h
half-life ([4]; in vivo, iv, T1/2, test group (fluconazole + diclofenac IV), birds alive, GM): 0.85 h
half-life ([4]; in vivo, iv, T1/2, test group (fluconazole + diclofenac IV), birds dead, GM): 0.96 h
Tmax ([4]; in vivo, iv, Tmax, control group (diclofenac IV alone), birds alive, GM): 0.4 h
Tmax ([4]; in vivo, iv, Tmax, control group (diclofenac IV alone), birds dead, GM): 0.4 h
Tmax ([4]; in vivo, iv, Tmax, test group (fluconazole + diclofenac IV), birds alive, GM): 0.35 h
Tmax ([4]; in vivo, iv, Tmax, test group (fluconazole + diclofenac IV), birds dead, GM): 0.25 h
Vd ([4]; in vivo, iv, Vss, control group (diclofenac IV alone), birds alive, GM): 2.04 L/kg
Vd ([4]; in vivo, iv, Vss, control group (diclofenac IV alone), birds dead, GM): 4.16 L/kg
Vd ([4]; in vivo, iv, Vss, test group (fluconazole + diclofenac IV), birds alive, GM): 2.44 L/kg
Vd ([4]; in vivo, iv, Vss, test group (fluconazole + diclofenac IV), birds dead, GM): 1.17 L/kg
Vd ([4]; in vivo, iv, Vz, control group (diclofenac IV alone), birds alive, GM): 1.98 L/kg
Vd ([4]; in vivo, iv, Vz, control group (diclofenac IV alone), birds dead, GM): 3.88 L/kg
Vd ([4]; in vivo, iv, Vz, test group (fluconazole + diclofenac IV), birds alive, GM): 2.24 L/kg
Vd ([4]; in vivo, iv, Vz, test group (fluconazole + diclofenac IV), birds dead, GM): 1.23 L/kg
clearance ([4]; in vivo, iv, clearance, geometric mean, control group, all birds): 1.59 L/h/kg
clearance ([4]; in vivo, iv, clearance, geometric mean, test group (CYP inhibitor), all birds): 1.52 L/h/kg
Lz (terminal elimination phase rate constant) ([4]; test group (fluconazole + diclofenac IV), birds alive, GM): 0.82 h⁻¹
AUMClast [4, 9]: 0.34 μg/mL*(h)^2
Cmax [4, 9]: 0.48 µg/mL
Lz (terminal elimination phase rate constant) ([4]; test group (fluconazole + diclofenac IV), birds dead, GM): 0.72 h⁻¹
AUClast [4, 10]: 0.87 µg·h/mL
AUMClast [4, 10]: 0.63 μg/mL*(h)^2
MRT [5]: 15.11 h
T1/2 [5]: 12.24 h
